Assay results as given in patent publication US9809625B2, “Immunomodulators” (BRISTOL-MYERS SQUIBB COMPANY, priority 2015, dated 2017).
Bridge positions count the residues as written; N and C are the ends. Square brackets hold non-standard residues; d marks the D form. Peptide text beside a SMILES is read from it. * marks the point of attachment. ξ: configuration not given here. Piperazinyl(4-Ph) = c1ccc(N2CCN(*)CC2)cc1; Hyp = O=C(O)[C@@H]1C[C@@H](O)CN1; ξW = NC(Cc1c[nH]c2ccccc12)C(=O)O; NMeNle = CCCC[C@H](NC)C(=O)O; X5 = Clc1ccc(C2CCN(*)CC2)cc1; NMeA = CN[C@@H](C)C(=O)O; Dap = NC[C@H](N)C(=O)O; X13 = CS(=O)(=O)CCN*; Sar = CNCC(=O)O

Molecular target: T1, PD-1-Ig binding to PD-L1-TVMV-His (PD-L1-His) (Homo sapiens, UniProt Q9NZQ7)
T1 construct: hPDL1(19-239)-TVMV-His; TVMV protease cleavage site (C); made in house; host or cells: HEK293T
Experiment: PD-1/PD-L1 Homogenous Time-Resolved Fluorescence (HTRF) binding assay
Conditions: PD-1-Ig (20 nM)/PD-L1-His (10 nM), range classes

T1 sequence (Q9NZQ7 with tags, fused parts or gaps): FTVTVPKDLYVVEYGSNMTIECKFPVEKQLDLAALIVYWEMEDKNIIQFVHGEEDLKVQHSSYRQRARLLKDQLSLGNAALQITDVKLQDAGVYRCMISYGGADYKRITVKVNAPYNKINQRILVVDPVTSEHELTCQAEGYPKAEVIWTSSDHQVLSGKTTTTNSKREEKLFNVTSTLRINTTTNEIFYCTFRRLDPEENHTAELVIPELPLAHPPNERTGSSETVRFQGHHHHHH

| Compound | IC50 |
| --- | --- |
| CCCC[C@H]1C(=O)N(C)[C@@H](CCCC)C(=O)N[C@@H](CC(C)C)C(=O)N[C@H](C(=O)NCC(=O)N2CCC(c3ccc(Cl)cc3)CC2)CSCC(=O)N[C@@H](Cc2ccc(O)cc2)C(=O)N(C)[C@@H](C)C(=O)N[C@@H](CC(N)=O)C(=O)N2CCC[C@H]2C(=O)N[C@@H](CN)C(=O)N[C@@H](CC(C)C)C(=O)N2C[C@H](O)C[C@H]2C(=O)N[C@@H](Cc2c[nH]c3ccccc23)C(=O)NCC(=O)NC(Cc2c[nH]c3ccccc23)C(=O)N1C (stereo partly shown) [Example 13115] ({CH2CO}-Y[NMeA]NP[Dap]L[Hyp]WG[ξW][NMeNle][NMeNle]LCG-X5; thioether N-14) | 10 to 60 nM |
| CCCC[C@H]1C(=O)N(C)[C@@H](CCCC)C(=O)N[C@@H](CC(C)C)C(=O)N[C@H](C(=O)NCC(=O)NCCS(C)(=O)=O)CSCC(=O)N[C@@H](Cc2ccc(O)cc2)C(=O)N(C)[C@@H](C)C(=O)N[C@@H](CC(N)=O)C(=O)N2CCC[C@H]2C(=O)N[C@@H](CN)C(=O)N[C@@H](CC(C)C)C(=O)N2C[C@H](O)C[C@H]2C(=O)N[C@@H](Cc2c[nH]c3ccccc23)C(=O)NCC(=O)NC(Cc2c[nH]c3ccccc23)C(=O)N1C (stereo partly shown) [Example 13116] ({CH2CO}-Y[NMeA]NP[Dap]L[Hyp]WG[ξW][NMeNle][NMeNle]LCG-X13; thioether N-14) | 10 to 60 nM |
| CCCC[C@H]1C(=O)N(C)[C@@H](CCCC)C(=O)N[C@@H](CC(C)C)C(=O)N[C@H](C(=O)NCC(=O)N2CCN(c3ccccc3)CC2)CSCC(=O)N[C@@H](Cc2ccc(O)cc2)C(=O)N(C)[C@@H](C)C(=O)N[C@@H](CC(N)=O)C(=O)N2CCC[C@H]2C(=O)N[C@@H](CN)C(=O)N[C@@H](CC(C)C)C(=O)N2C[C@H](O)C[C@H]2C(=O)N[C@@H](Cc2c[nH]c3ccccc23)C(=O)NCC(=O)NC(Cc2c[nH]c3ccccc23)C(=O)N1C (stereo partly shown) [Example 13117] ({CH2CO}-Y[NMeA]NP[Dap]L[Hyp]WG[ξW][NMeNle][NMeNle]LCG-{Piperazinyl(4-Ph)}; thioether N-14) | 4 to 9.9 nM |
| CCCC[C@H]1C(=O)N(C)[C@@H](CCCC)C(=O)N[C@@H](CC(C)C)C(=O)N[C@H](C(=O)N(C)CC(N)=O)CSCC(=O)N[C@@H](Cc2ccc(O)cc2)C(=O)N(C)[C@@H](C)C(=O)N[C@@H](CC(N)=O)C(=O)N2CCC[C@H]2C(=O)N[C@@H](CN)C(=O)N[C@@H](CC(C)C)C(=O)N2C[C@H](O)C[C@H]2C(=O)N[C@@H](Cc2c[nH]c3ccccc23)C(=O)NCC(=O)N[C@@H](Cc2c[nH]c3ccccc23)C(=O)N1C [Example 13119] ({CH2CO}-Y[NMeA]NP[Dap]L[Hyp]WGW[NMeNle][NMeNle]LC[Sar]-NH2; thioether N-14) | 10 to 60 nM |
